The target of experiment [1] is T1, truncated human beta-secretase (residues 1-458, His6-tagged at the C-terminus) (Homo sapiens, UniProt P56817).
T1 construct: truncated human beta-secretase (residues 1-458, His6-tagged at the C-terminus); His6 (C); made in house; host or cells: insect cells D. melanogaster S2 (baculovirus expression system (so in the source))
The experiment can be described thus: BACE fluorescence quench assay. Format: biochemical. The conditions noted are these: in vitro enzyme activity, BACE fluorescence assay, pH 4.5; read-out: IC50.

Experiment [2] is described as follows: BACE cell assay: soluble Amyloid Beta 1-40 (Aβ 1-40) in culture media of H4-APPsw cells. Format: cell-based. The conditions noted are these: in vitro cell activity, H4-APPsw cells, secreted Aβ 1-40, overnight treatment; read-out: IC50.

pIC50: −log10 of the molar value.

T1 sequence (P56817 22-458): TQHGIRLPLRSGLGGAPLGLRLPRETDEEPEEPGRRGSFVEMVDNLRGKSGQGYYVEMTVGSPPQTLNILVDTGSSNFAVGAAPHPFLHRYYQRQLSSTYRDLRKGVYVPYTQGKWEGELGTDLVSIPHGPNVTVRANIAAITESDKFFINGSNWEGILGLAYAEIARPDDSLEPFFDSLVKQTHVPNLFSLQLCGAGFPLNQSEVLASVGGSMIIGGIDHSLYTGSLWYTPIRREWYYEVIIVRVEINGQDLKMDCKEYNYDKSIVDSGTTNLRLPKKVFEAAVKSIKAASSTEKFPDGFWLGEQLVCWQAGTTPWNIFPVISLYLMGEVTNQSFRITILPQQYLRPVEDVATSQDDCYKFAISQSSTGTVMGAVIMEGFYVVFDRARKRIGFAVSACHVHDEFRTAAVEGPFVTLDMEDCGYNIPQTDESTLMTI

As for `CN1OC2(C[C@H]([C@@H]3CCOC(C)(C)C3)Oc3ccc(-c4cc(F)cc(Cl)c4)cc32)N=C1N` (some centres unmarked) [Compound 299], the pIC50 (as a rule, the IC50 on a negative log10 scale, so that one unit is a factor of ten) in experiment [1] was 6.30 to 7.00; in experiment [2] it was 5.30 to 6.00.
Take `COc1cc(OC)cc(-c2ccc3c(c2)[C@]2(C[C@@]4(CCCOC4)O3)N=C(N)N(C)C2=O)c1` [Compound 333]: the pIC50 was 6.30 to 7.00 in experiment [1] and 5.30 to 6.00 in experiment [2].
For `CC1CC[C@]2(CO1)C[C@]1(N=C(N)N(C)O1)c1cc(-c3cc(F)cc(Cl)c3)ccc1O2` (some centres unmarked) [Compound 298] the same measures were 6.30 to 7.00 and 5.30 to 6.00.
Consider `CC1CC[C@]2(CO1)C[C@]1(N=C(N)N(C)O1)c1cc(-c3cccc(Cl)c3)ccc1O2` (some centres unmarked) [Compound 303], for which the pIC50 in experiment [1] is 6.30 to 7.00; in experiment [2] it was 5.30 to 6.00.
The corresponding values for `CN1O[C@]2(C[C@H]([C@@H]3CCCOC3)Oc3ccc(-c4cc(F)cc(F)c4)cc32)N=C1N` (racemic) [Compound 322, (2S,4R/2R,4S)-6-(3,5-difluorophenyl)-2′-methyl-2-((S/R)-tetrahydro-2H-pyran-3-yl)-2′H-spiro[chroman-4,5′-[1,2,4]oxadiazol]-3′-amine] are 6.30 to 7.00 and 5.00 to 5.30.
`CN1C(=O)C2(CC3(CCCOC3)Oc3ccc(-c4cc(C#N)ccc4F)cc32)N=C1N` (centres unmarked) [Compound 288]: the pIC50 in experiment [1] and in experiment [2] was 6.30 to 7.00 throughout.
For `CN1C(=O)C2(CC3(CCCOC3)Oc3ccc(-c4cc(F)cc(F)c4)cc32)N=C1N` (centres unmarked) [Compound 314], the pIC50 in experiment [1] is 6.30 to 7.00; in experiment [2], 6.00 to 6.30.
Regarding `COc1ccc2c(c1)CCC[C@@]1(C2)C[C@@]2(N=C(N)N(C)O2)c2cc(-c3cccc(C#N)c3)ccc2O1` [Compound 311], the pIC50 is 6.30 to 7.00 in experiment [1] and 6.00 to 6.30 in experiment [2].
As to `COc1cccc2c1CCCC1(C2)CC2(N=C(N)N(C)O2)c2cc(Br)ccc2O1` (centres unmarked) [Compound 373], the pIC50 is 6.00 to 6.30 in experiment [1] and 5.00 to 5.30 in experiment [2].
For `CN1OC2(C[C@@H](C34CCC(CC3)OC4)Oc3ccc(-c4cccc(C#N)c4)cc32)N=C1N` (some centres unmarked) [Compound 305] the same measures were 6.30 to 7.00 and 5.00 to 5.30.
The corresponding values for `CN1C(=O)C2(CC([C@H]3CCCc4ccccc43)Oc3ccc(-c4cccc(C#N)c4)cc32)N=C1N` (stereo in doubt) [Compound 335, 3-(2′-amino-1′-methyl-5′-oxo-2-(1,2,3,4-tetrahydronaphthalen-1-yl)-1′,5′-dihydrospiro[chroman-4,4′-imidazole]-6-yl)benzonitrile] are 6.30 to 7.00 and 5.00 to 5.30.
The corresponding values for `CN1OC2(CC3(CCC(c4ccccc4)CC3)Oc3ccc(-c4cccc(C#N)c4)cc32)N=C1N` (centres unmarked) [Compound 313] are 6.30 to 7.00 and 5.30 to 6.00.
For `CN1OC2(C[C@H](C34CCC(CC3)OC4)Oc3ccc(-c4cccc(C#N)c4)cc32)N=C1N` (some centres unmarked) [Compound 345], the pIC50 in experiment [1] was 6.30 to 7.00; in experiment [2], 5.00 to 5.30.
The corresponding values for `CN1OC2(CC3(CCCc4ccccc4C3)Oc3ccc(-c4ccc5cc[nH]c5c4)cc32)N=C1N` (centres unmarked) [Compound 352] are 6.00 to 6.30 and 5.30 to 6.00.
The corresponding values for `CN1C(=O)C2(CC3(CCCOC3)Oc3ccc(-c4cccc(Cl)c4)cc32)N=C1N` (centres unmarked) [Compound 290] are 6.30 to 7.00 and 6.00 to 6.30.
The corresponding values for `CN1OC2(C[C@]3(CC4CCC3OC4)Oc3ccc(-c4cccc(C#N)c4)cc32)N=C1N` (single isomer, unassigned) [Compound 403] are 5.30 to 6.00 and 5.00 to 5.30.

(Values after patent US8450308B2 (Vitae Pharmaceuticals, Inc., priority 2008, dated 2013).)
